Assay results as given in patent publication US20070117794A1, “Methods of treatment using oxytocin receptor agonists” (Wyeth, priority 2005, published 2007).

Columns and labels:
mouse = conditions: OT 3 mg/kg, i.p.; cited from earlier work
OTR = molecular target: T1, OTR (Homo sapiens, UniProt P30559); conditions: cited from earlier work
T1 sequence (P30559 1-389): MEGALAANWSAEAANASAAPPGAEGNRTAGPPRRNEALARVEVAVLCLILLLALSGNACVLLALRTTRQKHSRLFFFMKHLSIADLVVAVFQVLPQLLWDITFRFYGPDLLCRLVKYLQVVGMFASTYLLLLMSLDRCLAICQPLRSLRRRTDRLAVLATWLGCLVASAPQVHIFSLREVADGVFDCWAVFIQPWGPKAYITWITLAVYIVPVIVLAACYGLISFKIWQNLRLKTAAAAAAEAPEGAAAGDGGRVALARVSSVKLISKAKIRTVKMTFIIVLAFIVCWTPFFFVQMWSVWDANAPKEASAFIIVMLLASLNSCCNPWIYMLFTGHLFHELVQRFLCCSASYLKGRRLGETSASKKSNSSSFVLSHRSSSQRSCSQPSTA

[1] = tested on: Male Sprague-Dawley derived Rats; experiment: Prepulse inhibition of the acoustic startle reflex (PPI), MK801 disrupted; format: in vivo, rat; conditions: oxytocin 0.04-1 mg/kg s.c.; data not shown
Text: Prepulse inhibition of the acoustic startle reflex (PPI) is an operational measure of sensorimotor gating that can be measured across many species. Deficits in PPI have been reported in patients with schizophrenia, leading to its use as a preclinical model of the disease. In rats, PPI is decreased in a manner homologous to that seen in schizophrenia following administration of certain psychotomimetic drugs (e.g. MK801; amphetamine). In our study we utilized MK801, a non-competitive NMDA antagonist and d-Amphetamine, a non-selective dopamine agonist.
Animals: Male Sprague-Dawley derived Rats (SD) weighing 200-250 g were group housed in standard bedding cages, allowed access to food and water ad libitum, and maintained on a 12-hour light dark cycle. All behavioral testing was performed during the light cycle. All studies were previously approved by the Institutional Animal Care and Use Committee, and performed in accordance to the Guide for the Care and Use of Laboratory Animals as adopted and promulgated by the National Institutes of Health.
Test Compounds: The oxytocin agonist cpd A was dissolved in a 1% Tween-80/1% DMSO/saline vehicle. MK801 (Sigma, St. Louis, Mo.) was dissolved in 2% Tween-80/saline. d-Amphetamine (Sigma, St. Louis, Mo.) was dissolved in saline.
Each testing chamber (SR-LAB system, San Diego Instruments) consisted of a Plexiglas cylinder (8.8 cm in diameter) mounted on a frame and held in position by four metal pins to a base unit. Movement of the rat within the cylinder was detected by a piezoelectric accelerometer attached below the frame. […] Presentation of acoustic pulse and prepulse stimuli were controlled by the SR-LAB software and interface system, which also digitized, rectified and recorded the responses from the accelerometer. Mean startle amplitude was determined by averaging 100, 1 ms readings taken from the beginning of the pulse stimulus onset. For calibration purposes, sound levels were measured with a Quest sound level meter, scale “A”, with the microphone placed inside the Plexiglas cylinder. […]
Startle amplitude was defined as the mean value of pulse alone trials. To evaluate the effect of drug treatment on startle response, data from the pulse alone trials was analyzed using one-factor ANOVA with repeated measures (one-way randomized block design), followed by a least significant difference (LSD) post-hoc test (comparison was made to vehicle/disrupting agent control). […] Although data for gating at three different prepulse intensities was generated, an averaged gating score across all prepulse intensities was calculated and this was analyzed by one factor ANOVA with repeated measures (one-way randomized block design). […]

rat = conditions: subcutaneous oxytocin; deficit induced by dizocilpine and amphetamine; cited from earlier work
Male Swiss-Webster mice = experiment: Four-Plate Test (FPT), punished crossings; format: in vivo, mouse; conditions: 30 minutes prior to testing; for increase in punished crossings from vehicle: icv, p<0.05
Procedure: Animals: Male Swiss-Webster mice weighing 18-24 g were housed in groups of 15 in hanging wire cages, allowed access to food and water ad libitum, and maintained on a 12-hour light dark cycle. All behavioral testing was performed during the light cycle. All studies were previously approved by the Institutional Animal Care and Use Committee, and performed in accordance to the Guide for the Care and Use of Laboratory Animals as adopted and promulgated by the National Institutes of Health.
Test Compounds: Oxytocin (American Peptide Company, Sunnyvale, Calif.) was dissolved in a saline vehicle. The oxytocin agonist 4,-(3,5-Dihydroxy-benzyl)-piperazine-1-carboxylic acid 2-methyl-4-(3-methyl-4,10-dihydro-3H-2,3,4,9-tetra-aza-benzo[f]azulene-9-carbonyl)-benzylamide (hereinafter “cpd A”) and oxytocin antagonist 10-[(2-Methyl-2′-trifluoromethyl-[1,1′-biphenyl]-4-yl)carbonyl]-10,11-dihydro-5H-pyrrolo[2,1-c][1,4]benzodiazepine-3-carboxylic acid-bis-(2-hydroxy-ethyl)-amide (hereinafter “cpd B”) (Patent W/O 02/083680) were prepared and dissolved in a 1% Tween-80/1% DMSO/saline vehicle.
ICV injections: Mice were lightly anesthetized with halothane. Oxytocin was administered into either the left or right ventricle by visual location. A 26 gauge Hamilton syringe with 3 mm needle was used for injections and the injection site was visualized by locating the middle of the invisible line that runs diagonally from the left eye to the right ear. Test compounds were injected in a 2 μl total volume.
Four-Plate Test (FPT:) The four-plate apparatus consists of a Plexiglas chamber (18×25×16 cm) floored with four identical rectangular metal plates (8×11 cm), which are separated from one another by a gap of 4 mm and connected to a computerized device that can deliver electric shocks (0.8 mA, 0.5 sec) (Aron et al. Evaluation of a rapid technique for detecting minor tranquilizers, Neuropharmacology 10: 459-69 (1971)). In this test, mice are placed into the chamber and following a brief (18 seconds) habituation period, the animal's innate motivation to explore the novel environment is suppressed by the delivery of a mild foot shock every time the animal crosses any of the boundaries (gaps) while moving from one plate to another (referred to as a ‘punished crossing’). Following any punished crossing, there is a 3-second time out where the mouse may cross the electric plates without receiving another shock. An experimenter blind to the dosing conditions administers shocks, and a computer records the total number of punished crossings an animal makes during a 1-minute testing period. […] Pharmacol Biochem Behav 65: 339-44 (2000)). In all experiments, the testing procedure consisted of either a single injection or two injections followed by a test session 30 minutes later.
Statistical Analysis: One-way analysis of variance (ANOVA) was performed to determine effects of test compound treatments, followed by Least Significant Difference Tests for a post hoc analysis. All figures are shown with average ±SEM.

male rats = conditions: OT 1-4 ug/kg, s.c.; cited from earlier work
rats = conditions: cited from earlier work

CC[C@H](C)[C@@H]1NC(=O)[C@H](Cc2ccc(O)cc2)NC(=O)[C@@H](N)CSSC[C@@H](C(=O)N2CCC[C@H]2C(=O)N[C@@H](CC(C)C)C(=O)NCC(N)=O)NC(=O)[C@H](CC(N)=O)NC(=O)[C@H](CCC(N)=O)NC1=O [Oxytocin]
activity in elevated-plus maze (mouse): anxiolytic-like activity | selectivity for OT compared to AVP at the OTR (OTR): 10 fold | reversal of MK801 induced deficits in PPI [1]: reversed the MK801 induced deficits in PPI in rats in a dose dependent manner | restoration of prepulse inhibition (rat): dose-dependently restore prepulse inhibition | increase in punished crossings from vehicle (Male Swiss-Webster mice; oxytocin 3 μg): 30% | increase in punished crossings from vehicle (Male Swiss-Webster mice; oxytocin 10 μg): 51% | punished crossings (effect in words) (Male Swiss-Webster mice; oxytocin 1-10 μg icv (b94 prints 1-10 mg)): dose-dependent increase in punished crossings | peripheral locomotor activity in the Open-Field model (male rats): decrease in peripheral locomotor activity | open arm entries and time spent in the open arms of the elevated plus-maze (rats; OT 10-100 ng, i.c.v.): increases in open arm entries and time spent in the open arms | activity in the elevated-plus maze (rats; pregnant or lactating rats, but not virgin rats): Anxiolytic activity
